Ends that are not written are not given here. Where only a bound is given, the exact number is not on record here.

From patent US6673770B1, “Peptides for the treatment, prophylaxis, diagnosis and monitoring of autoimmune diseases” (Upither B.V., priority 1998, dated 2004) come the findings set out here.

The target in one assay is T1, MHC class II RT1.B^L (Rattus norvegicus, UniProt P20037+P29826).
T1 sequence (P20037 24-256): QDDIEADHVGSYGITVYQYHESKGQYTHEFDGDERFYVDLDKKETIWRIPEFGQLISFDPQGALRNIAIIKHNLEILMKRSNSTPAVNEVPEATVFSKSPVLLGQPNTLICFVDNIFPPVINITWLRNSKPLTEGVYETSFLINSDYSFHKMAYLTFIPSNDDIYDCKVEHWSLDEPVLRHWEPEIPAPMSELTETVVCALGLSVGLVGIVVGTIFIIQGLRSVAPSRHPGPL
T1 sequence (P29826 28-263): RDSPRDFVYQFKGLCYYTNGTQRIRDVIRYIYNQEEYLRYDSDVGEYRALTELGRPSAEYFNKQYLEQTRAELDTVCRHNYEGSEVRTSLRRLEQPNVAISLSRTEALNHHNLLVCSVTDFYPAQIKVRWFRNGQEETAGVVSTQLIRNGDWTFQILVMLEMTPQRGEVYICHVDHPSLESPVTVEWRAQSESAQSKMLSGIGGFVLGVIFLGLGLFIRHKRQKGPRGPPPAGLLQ
Kind of assay: MHC-peptide competition binding assay on isolated RT1.B^L molecules. On the set-up: species or system Lewis rat. The text has this: Because the rat self-antigen to which the A2b T-clone is reactive is not known at present time, the present inventors have designed a computer search strategy based on the interactions of the mycobacterial hsp65 178-186 peptide within the trimolecular complex of MHC class II (RT1.B^L)-mycobacterial hsp65 178-186-T-cell receptor of clone A2b, to identify relevant candidate arthritis-associated antigens that can serve as target for autoimmune T-cell mediated tissue destruction in arthritis. Within the mycobacterial hsp65 178-186 sequence, residues involved in MHC binding have been identified by using an MHC-peptide binding assay on isolated MHC class II RT1.B^L proteins. The residues which have an important role in determining the RT1.B^L binding affinity of the mycobacterial hsp65 178-186 peptide, the so-called MHC anchor residues were determined. By studying the MHC-peptide binding affinities of other non-related peptides, a general MHC-peptide binding motif for the Lewis rat RT1.B1 molecule was defined (Wauben et al., Int. Immunol. 9:281 (1997)). For the definition of residues within the minimal core sequence mycobacterial hsp65 180-186, interacting with the T-cell receptor of the A2b T cell clone, the results derived from MHC-peptide binding assays, and proliferation assays of the A2b T cell clone were integrated.
#RT1.B^L binding affinity is expressed as 50%ID (=inhibitory dose). The 50%ID value indicates the concentration of peptide needed to inhibit 50% binding of the marker peptide in a competition assay on isolated RT1.B^L molecules.

The next assay addresses DRB1*0401 (Homo sapiens, UniProt P01903+P01911, A100K/A169T/F76Y/I96L/K127E/L162R/M171V/N62H/P40V/Q125Y/R42H/S133A/S149N/S66Y/V115G/V209L/W38E). The assay is described as follows: MHC-peptide competition binding assay on isolated DRB1*0401 molecules. To be noted: DRB1*0401 1 μM, biotinylated HA-marker peptide 100 nM, peptide 0-256 μM; read-out: DRB1*0401 binding (IC50). The method, then: T-cell responses to the selected peptides in patients are analysed by studying T-cell proliferation of peripheral blood lymphocytes (PBL) and synovial fluid derived cells. […] In these human studies the peptides are tested as 15-mers containing the 9-mer sequence of Table 2 as core sequence. […] The MHC binding affinity of the selected peptides is analysed for the most-common MHC class II-arthritis associations. […] The peptide binding affinity is tested in a MHC-peptide competition assay on isolated MHC molecules in the presence of a labelled marker peptide.
# MHC-peptide binding was measured as described in Wauben et al., Int. Immunol. […] Peptide binding is expressed as tire IC50.

Assay [1] concerns peripheral blood lymphocytes (PBL) of RA/JCA patients. The assay is described as follows: 6-days proliferation assay on PBLs of RA and JCA patients. Particulars: number of patients with PBL proliferation >2 times background; 15-mers at 1 μg/ml and 10 μ/ml. It counts as cell-based, human. The method, then: T-cell responses to the selected peptides in patients are analysed by studying T-cell proliferation of peripheral blood lymphocytes (PBL) and synovial fluid derived cells. […] In these human studies the peptides are tested as 15-mers containing the 9-mer sequence of Table 2 as core sequence. […] This is further strengthened by the fact that, the patients were not selected for having a certain MHC haplotype. The MHC binding affinity of the selected peptides is analysed for the most-common MHC class II-arthritis associations. In Table 3 the peptide binding affinity for DRB1*0401 is shown as an example. The peptide binding affinity is tested in a MHC-peptide competition assay on isolated MHC molecules in the presence of a labelled marker peptide. The fact that of the n=12 peptides selected for binding to the rat DQ equivalent RT1.B^1, n=11 peptides also bind DRB1*0401, further confirms the promiscuous MHC binding of the selected peptides. This ensures a wide applicability of the peptides for prophylaxis, treatment, monitoring and/or diagnosis of the disease.
^ Indicated are the numbers of patients responding to tire peptides as defined in a 6-days proliferation assay on PBLs. Responses were considered positive if the proliferation (as measured by ^3H-thymidine incorporation) was >2 times background proliferation. Peptides were tested in concentrations of 1 μg/ml and 10 μ/ml.

Another assay relates to adjuvant arthritis. Kind of assay: Nasal peptide administration in the adjuvant arthritis model. It counts as in vivo, rats. To be noted: for Day of onset / Arthritis score: 100 μg peptide nasal at days 0, 3, 7, 11, mean±sd, n=4 rats; for Arthritis score: scale 0-16. The protocol:
The potential arthritis protective qualities of selected peptides/proteins are tested through nasal or oral tolerance induction in the adjuvant arthritis model.
* Adjuvant arthritis is induced at day 0 by immunisation of MT/IFA (5 mg/ml MT) at the base of the tail. At days 0, 3, 7 and 11, 100 μg peptide in 10 μl saline is administered in the nostrils. Arthritis is scored upon clinical examination on a scale from 0-16. Data are expressed as mean±sd (n=4 rats/group).

The next assay concerns DTH reaction. Kind of assay: Delayed type hypersensitivity reaction after peptide/DDA immunisation. The format is in vivo, rats. To be noted: challenge day 72, peptide/saline s.c. in ear; measured 24 and 48 hr. The method, then: # DTH (Delayed type hypersensitivity) reactions are induced at day 72 after immunisation of peptide/DDA, by subcutaneous injection of the peptide/saline in the ear. DTH are measured 24 and 48 hr after challenge.

Another assay deals with T cell clone A2b. Kind of assay: Recognition by A2b T-cell clone: proliferation and/or activation marker expression. It counts as cell-based, Lewis rats. To be noted: positive: proliferation more than 2 times background in 2 of 4 experiments and/or activation marker upregulation in 2 of 3 experiments. The protocol:
As an immediate read-out for mimicry peptides T-cell activation is measured by proliferation, TcR downregulation, expression of activation markers, and cytokines responses of clone A2b. In addition A2b-like T cells from arthritic rats are isolated, and activation of such cells is measured by, proliferation, TcR downregulation, expression of activation markers, and cytokines responses. Furthermore, T-cell lines are generated after immunisation with MT/IFA or selected peptides/DDA. The cross-reactive nature of the peptide specific T-cell responses is analysed in vitro by determining the recognition of both the self peptide as well as the mycobacterial hsp65 178-186 peptide. After testing the panel of n=65 peptides for induction of proliferation of T cell clone A2b, and/or induction of expression of activation markers, n=20 peptides (SEQ ID NOs: 15, 19, 20, 21, 22, 23, 24, 26, 30, 31, 32, 33, 35, 49, 51, 61, 63, 65, 67, 69) were considered positive. Criteria for positivity were that in 2 out of 4 experiments the induced proliferation was more than 2 times background proliferation as measured by ^3H-thymidine incorporation, and/or that in 2 out of 3 experiments upregulation of an activation marker was detectable by FACS analysis.

Another assay has as its system arthritis. The assay is described as follows: Arthritis induction by immunisation with peptide in DDA adjuvant. It counts as in vivo. Particulars: rats with clinical arthritis/rats immunised; 50 μg peptide in 100 μl DDA, one hind footpad. The method, then:
To check the arthritogenic potential of the selected peptides, rats are immunised with 50 μg peptide in 100 μl DDA adjuvant in one hind footpad. […] Two of the five peptides show defined clinical arthritis. * Arthritis is induced by Immunisation of 50 μg peptide in 100 μl DDA adjuvants in one hind footpad and scored upon clinical examination.

Assay [2] relates to T cells from inguinal and popliteal lymph nodes and spleen. Kind of assay: T-cell recognition (proliferation) during adjuvant arthritis time course. The format is cell-based, Lewis rats. To be noted: positive: proliferation more than 1.5 times background in more than 25% of organs; days 14, 19, 21, 32, 39.

The term IC50 denotes the concentration needed to halve the response being measured. At MHC class II RT1.B^L, AFGLQLELT [SEQ ID NO: 4, AFGLQLELT] yielded an IC50 of 64 to 128 µM.

For the sequence “FFYFFTGSSQLEFDP [SEQ ID NO: 70, FFYFFTGSSQLEFDP]”, at DRB1*0401, the IC50 was < 8 µM. Also, in assay [1], the “JCA patients responding (n = 6 tested)” value is listed as 2 and the “RA patients responding (n = 39 tested)” value was 29^.

On to “LKSVNGQIE (listed as Rattus sp.) [SEQ ID NO: 15]”, for which, in the assay on adjuvant arthritis, the Day of onset is recorded as 15.0 ± 1.7 and the Arthritis score was found to be 4.3 ± 4.8. The “Protective effect in adjuvant arthritis upon nasal administration” value in the assay on adjuvant arthritis (in words) is “protective effect”. Further, in the assay on DTH reaction, the DTH reaction is given as 2/2. Also, the “Recognition by T cell clone A2b” value with T cell clone A2b is “positive”. Also, in the assay with arthritis, the “Arthritis Induction” value was 0/4.

As to “NAMLKSICEVLDLER [SEQ ID NO: 81, NAMLKSICEVLDLER]”, the IC50 on DRB1*0401 was > 256 µM. For the same sequence, in assay [1], the “JCA patients responding (n = 6 tested)” value amounted to 1 and the “RA patients responding (n = 39 tested)” value stood at 2.

“SAFWPSLPSYLDAAY [SEQ ID NO: 71, SAFWPSLPSYLDAAY]”: the IC50 at DRB1*0401 lay within 8 to 16 µM. The “RA patients responding (n = 39 tested)” value in assay [1] is recorded as 4.

Turning to “SSFWPSLPSGVDAAY [SEQ ID NO: 73, SSFWPSLPSGVDAAY]”, the IC50 on DRB1*0401 fell in the range of 16 to 32 µM. For the same sequence, the “RA patients responding (n = 39 tested)” value in assay [1] is 4.

Regarding TAGLQLELT [SEQ ID NO: 5, TAGLQLELT], the IC50 on MHC class II RT1.B^L was 64 to 128 µM.

On to TFALQLELT [SEQ ID NO: 6, TFALQLELT], for which, at MHC class II RT1.B^L, the half-inhibitory concentration (IC50) lay in the range of 32 to 64 µM.

In turn, TFGAQLELT [SEQ ID NO: 7, TFGAQLELT] gave an IC50 at MHC class II RT1.B^L of 8 to 16 µM.

On to TFGLALELT [SEQ ID NO: 8, TFGLALELT], for which, at MHC class II RT1.B^L, the IC50 is > 256 µM.

Turning to TFGLQAELT [SEQ ID NO: 9, TFGLQAELT], the IC50 on MHC class II RT1.B^L is 32 to 64 µM.

Take TFGLQLALT [SEQ ID NO: 10, TFGLQLALT]: at MHC class II RT1.B^L, the IC50 lay in the range of 128 to 256 µM.

As to TFGLQLEAT [SEQ ID NO: 11, TFGLQLEAT], the IC50 at MHC class II RT1.B^L was 32 to 64 µM.

Consider TFGLQLELA [SEQ ID NO: 12, TFGLQLELA], for which, on MHC class II RT1.B^L, the IC50 was in the range of 32 to 64 µM.

On to “TFGLQLELT [SEQ ID NO: 3, TFGLQLELT, reference compound]”, for which the IC50 on MHC class II RT1.B^L lay in the range of 32 to 64 µM.

For “VQTAVTNID (listed as Rattus sp.) [SEQ ID NO: 53]”, the DTH reaction in the assay with DTH reaction is listed as 2/2. Moreover, in the assay on arthritis, the “Arthritis Induction” value was 0/4. In assay [2], the “T-cell recognition during adjuvant arthritis” value is listed as “positive”.

In the case of “VSSFSLNVE (listed as Rattus sp.) [SEQ ID NO: 26]”, in the assay on adjuvant arthritis, the Day of onset is recorded as 13.0 ± 0 and the Arthritis score turned out to be 11.0 ± 3.5. Besides, the DTH reaction in the assay on DTH reaction is 2/2. The “Recognition by T cell clone A2b” value with T cell clone A2b is “positive”. In addition, the “Arthritis Induction” value with arthritis is given as 0/4.

As to “WPSLPSGLD (listed as Rattus sp.) [SEQ ID NO: 50]”, in the assay on adjuvant arthritis, the Day of onset is 14.3 ± 2.0 and the Arthritis score amounted to 11.3 ± 3.8. Also, the DTH reaction with DTH reaction is recorded as 0/2. The “Arthritis Induction” value in the assay on arthritis was 2/4. Moreover, the “T-cell recognition during adjuvant arthritis” value in assay [2] is “positive”.

For the sequence “WPSLPSNMD (listed as Rattus sp.) [SEQ ID NO: 48]”, in the assay with adjuvant arthritis, the Day of onset amounted to 13.3 ± 1.0 and the Arthritis score is reported as 10.5 ± 1.7. For the same sequence, the DTH reaction with DTH reaction is listed as 0/2. The “Arthritis Induction” value with arthritis is on record as 1/4.
